Test results taken from patent US20160045528A1, “COMBINATION THERAPY FOR TREATING A PARAMYXOVIRUS” (priority 2014, published 2016).

Tested on: RSV subgenomic replicon 395 HeLa
Assay: RSV replicon assay (Renilla luciferase, 395 HeLa replicon cells)
Assay type: cell-based
Details: human respiratory syncytial virus, 168 h
Text: The RSV subgenomic replicon 395 HeLa was licensed from Apath (Brooklyn, N.Y.) and was originally developed by Dr. Mark Meeples of Center for Vaccines & Immunity, the Research Institute at Nationwide Children's Hospital in Columbus, Ohio. To generate subgenomic RSV replicon, three glycoprotein genes, those for SH, G, and F, from a full-length recombinant GFP-expressing (rg) RSV antigenomic cDNA were deleted. In their place, a blasticidin S deaminase (bsd) gene was inserted. Through multiple steps, the RSV replicon was established in HeLa cells. The 395 HeLa cells were cultured in Dulbecco's Modified Eagle Medium (DMEM) containing 4500 mg/L D-glucose, L-glutamine, and 110 mg/L sodium pyruvate (Invitrogen, Cat. #11995-040). The medium was further supplemented with 10% (v/v) fetal bovine serum (FBS) (Mediatech, Cat. #35-010-CV), 1% (v/v) penicillin/streptomycin (Mediatech, Cat. #30-002-CI), and 10 μg/mL of Blasticidin (BSD) (Invivogen, Cat. code ant-b1-1). Cells were maintained at 37° C. in a humidified 5% CO2 atmosphere.
Determination of 50% inhibitory concentration […], 90% inhibitory concentration (C90) and 50% cytotoxic concentration […] in RSV replicon cells were performed by the following procedure. […]
The Renilla Luciferase Assay System (Promega, Cat. #E2820) was used to measure anti-RSV replicon activity. […] Luminescence was recorded using a Perkin Elmer multilabel counter Victor3V.

[2H]C([2H])(OC(=O)C(C)C)[C@@]1(CCl)O[C@@H](n2ccc(N)nc2=O)[C@H](F)[C@@H]1OC(=O)C(C)C [Compound 31]
EC50: < 1 µM
